Common to all, as to assay type: cell-based
Assay [1] deals with Escherichia coli ATCC9637. Description: MIC broth microdilution, E. coli ATCC9637. The conditions noted are these: CAMHB, 37° C., 18-20 hours, 90% growth inhibition. As to the method: [The source words this procedure for another organism and reports this organism under the same test.] (§1) Compound 7 was tested to evaluate its inhibitory effect on Staphylococcus aureus. An experiment was conducted to assess the minimum inhibitory concentration (MIC) of the compound of Formula (I).
(§2) 20.0 mg of test compound was weighed and dissolved in 0.5 mL of filtered DMSO (100%) to prepare a stock solution of 40 mg/mL concentration. Initial stock (Stock 1 and Stock 2) and working stock solution (10 concentrations) were prepared as mentioned in the table below. Final testing concentration in the micro-titer plates was starting from 1000 μg/mL in experiment plate.
(§3) The reference standards gentamicin, norfloxacin and levofloxacin were dissolved using sterile ultrapure water to prepare a stock solution of 2.0 mg/mL concentration. Working stock solution of 64 μg/mL was prepared in CAMHB by diluting 0.032 mL of 2.0 mg/mL stock solution in 0.968 mL of growth medium. The testing concentration in the micro-titer plates is 32 μg/mL.
(§4) Tester strains were sub-cultured on Soyabean Casein digest Agar (SCDA) and incubated at 37° C. for 18-20 hours in aerobic condition. After incubation, the isolated colonies were suspended in sterile saline to prepare the bacterial suspension. The bacterial suspension was adjusted to ˜1×10^8 CFU/mL.
(§5) ? titer plates (Flat bottom) were prepared as per the CLSI recommendations. The test compound and reference compounds dilution were performed in the micro titer plates. Two hundred microliters of respective growth medium were added to the wells of a 96-wellflat bottom plate well A1 to E1 for Broth control. One hundred microliters of respective growth medium were added to all the wells B3 to B11, C3 to C11, D3 to D11, E3 to E11 except B2 to E2. One hundred microliters of prepared test compound 7 working stock solution (10 concentrations) were added from A2 to A11. Two hundred microliters of reference Standard were added to B2, C2 and D2. Two hundred microliters of DMSO were to E2 as negative control. One hundred microliter was transferred from B2, C2, D2 and E2 wells B3, C3, D3 and E3 wells respectively and serially diluted up to B11, C11, D11 and E11 wells. One hundred microliter after serial dilution was discarded from Bit, C11, D11 and E11 wells, wells A12 to F12 serve as culture control.
(§6) The adjusted bacterial suspension was further diluted in CAMHB (Section 6.5), 100 μl of diluted culture was added to micro titer plate where the final concentration was 5×10^5 CFU/mL. Plates were incubated at 37° C. for 18-20 hours at aerobic conditions.
(§7) After incubation, visual readings were recorded, and the optical density was measured at 600 nm in spectrophotometer. The concentration of compound at 90% growth was inhibited compared to growth control was considered as the MIC value.
In general terms: Broth dilution looks for growth in wells or tubes with falling amounts of substance.

Assay [2] relates to Staphylococcus aureus ATCC700699. Description: MIC broth microdilution, S. aureus ATCC700699. The conditions noted are these: Staphylococcus aureus ATCC700699 (resistant to Methicillin and Oxacillin), CAMHB, 37° C., 18-20 hours, 90% growth inhibition. As for the experimental part:
as §1, §2, §3, §4, §5, §6, §7

Assay [3] has as its system Pseudomonas aeruginosa ATCC 9027. Briefly: MIC broth microdilution, P. aeruginosa ATCC 9027. The conditions noted are these: 37° C., 18-20 hours, 90% growth inhibition. As for the experimental part:
[The source words this procedure for another organism and reports this organism under the same test.] as §1, §2, §3, §4, §5, §6, §7

Assay [4] concerns Klebsiella pneumoniae ATCC 700603. Description: MIC broth microdilution, K. pneumoniae ATCC 700603. The conditions noted are these: 37° C., 18-20 hours, 90% growth inhibition. As for the experimental part:
[The source words this procedure for another organism and reports this organism under the same test.] as §1, §2, §3, §4, §5, §6, §7

In assay [5] the test system is Staphylococcus aureus ATCC29213. Description: MIC broth microdilution, S. aureus ATCC29213. As to conditions: Staphylococcus aureus ATCC29213 (sensitive strain), CAMHB, 37° C., 18-20 hours, 90% growth inhibition. As to the method:
as §1, §2, §3, §4, §5, §6, §7

The test system of assay [6] is Staphylococcus aureus (Gentamicin resistant) ATCC43300. Briefly: MIC broth microdilution, S. aureus ATCC43300. The conditions noted are these: Staphylococcus aureus ATCC43300 (resistant to Methicillin, Oxacillin, Gentamicin and Azithromycin), CAMHB, 37° C., 18-20 hours, 90% growth inhibition. As to the method:
as §1, §2, §3, §4, §5, §6, §7

Assay [7] has as its system Staphylococcus aureus ATCC25923. Description: MIC broth microdilution, S. aureus ATCC25923. As to conditions: Staphylococcus aureus ATCC25923 (sensitive strain), CAMHB, 37° C., 18-20 hours, 90% growth inhibition. As to the method:
as §1, §2, §3, §4, §5, §6, §7

In assay [8] the test system is Gram-positive Staphylococcus aureus strains, including MRSA and GR-MRSA. Briefly: MIC, summary over S. aureus strains. As to conditions: various Staphylococcus aureus strains, including MRSA and GR-MRSA (text summary of Table 1). As to the method: as §1, §2, §3
Tester strains were sub-cultured on Soyabean Casein digest Agar (SCDA) and incubated at 37° C. for 18-20 hours in aerobic condition. After incubation, the isolated colonies were suspended in sterile saline to prepare the bacterial suspension. The bacterial suspension was adjusted to ˜1×10^8 CFU/mL. […]
After incubation, visual readings were recorded, and the optical density was measured at 600 nm in spectrophotometer. […]

The mark [9] stands for this setting: ATCC700603, CAMHB, read-out: MIC.

In brackets after ≈: the same amount, converted by molar mass. Read-outs that look alike come from different tables or passages of the source.

A word on the MIC: it is the smallest concentration in the dilution series that meets the test's criterion for growth inhibition.

As to `C[C@H]1COc2c(N3CCN(C)CC3)c(F)cc3c(=O)c(C(=O)O)cn1c23` [Levofloxacin, levofloxacin], the MIC is not above 0.06 µg/mL in assay [1] (read-out: MIC); 16 µg/mL (≈ 44.3 µM) in assay [2] (read-out: MIC); 0.5 µg/mL (≈ 1.38 µM) in assay [3] (ATCC9027, CAMHB, read-out: MIC); 0.5 µg/mL (≈ 1.38 µM) in assay [4] (setting [9]); 0.13 µg/mL (≈ 0.36 µM) in assay [5] (read-out: MIC); 0.13 µg/mL (≈ 0.36 µM) in assay [6] (read-out: MIC). Also, the MIC in assay [7] (read-out: MIC) was determined as 0.13 µg/mL (≈ 0.36 µM).

Consider gentamicin, for which the MIC was 1.00 µg/mL in assay [1]; more than 32.00 µg/mL in assay [2]; 2.00 µg/mL in assay [3] (CAMHB); 16.00 µg/mL in assay [4] (CAMHB); 0.50 µg/mL in assay [5]; more than 32.00 µg/mL in assay [6]. The MIC in assay [7] was found to be 0.25 µg/mL.

`CCCc1nn(C)c2c(-c3c[nH]c4ccc(Cl)cc34)nc(-c3ccc(Cl)cc3)nc12` [Compound 7, 7-(5-chloro-1H-indol-3-yl)-5-(4-chlorophenyl)-1-methyl-3-propyl-1H-pyrazolo[4,3-d]pyrimidine]: the MIC was more than 1000 µg/mL in assay [1] (read-out: MIC); 1 µg/mL (≈ 2.29 µM) in assay [2] (read-out: MIC); more than 1000 µg/mL in assay [3] (ATCC9027, CAMHB, read-out: MIC); 1 µg/mL (≈ 2.29 µM) in assay [8]; more than 1000 µg/mL in assay [4] (setting [9]); 1 µg/mL (≈ 2.29 µM) in assay [5] (read-out: MIC). Further, the MIC in assay [6] (read-out: MIC) and in assay [7] (read-out: MIC) was 1 µg/mL (≈ 2.29 µM) throughout.

Take `CCn1cc(C(=O)O)c(=O)c2cc(F)c(N3CCNCC3)cc21` [Norfloxacin, norfloxacin]: the MIC in assay [1] (read-out: MIC) is not above 0.06 µg/mL; in assay [2] (read-out: MIC) it was more than 32 µg/mL; in assay [3] (ATCC9027, CAMHB, read-out: MIC), 0.5 µg/mL (≈ 1.57 µM); in assay [4] (setting [9]) it was 4 µg/mL (≈ 12.5 µM); in assay [5] (read-out: MIC) it was 1 µg/mL (≈ 3.13 µM); in assay [6] (read-out: MIC) it was 1 µg/mL (≈ 3.13 µM). The MIC in assay [7] (read-out: MIC) turned out to be 2 µg/mL (≈ 6.26 µM).

The values are drawn from patent US20250144102A1, “1 H-PYRAZOLO[4,3-D]PYRIMIDINE DERIVATIVES AS STAPHYLOCOCCUS AUREUS INHIBITORS” (DR REDDY'S INSTITUTE OF LIFE SCIENCES, priority 2022, published 2025).
